Experimental data taken from the NIST ThermoML archive (doi:10.1021/acs.jced.5b00816).

How the values were obtained:
[1] = Solid-liquid equilibrium temperature; details: 101 kPa; Crystal; DTA
[2] = molar heat capacity at constant pressure; details: 101.33 kPa
[3] = Molar enthalpy of transition or fusion; details: Crystal

CNC[C@H](O)[C@@H](O)[C@H](O)[C@H](O)CO [(2R,3R,4R,5S)-6-(methylamino)hexane-1,2,3,4,5-pentaol]
Details | Molar enthalpy of transition or fusion [kcal/mol] | Solid-liquid equilibrium temperature [K]
[1] | – | 400.9
[3] | 12.3 | –

molar heat capacity at constant pressure [J/K/mol], [2]
Details | Crystal | Metastable liquid
290 K | 322 | –
295 K | 327 | –
300 K | 333 | –
305 K | 338 | –
310 K | 343 | –
315 K | 348 | –
320 K | 353 | –
325 K | 358 | –
330 K | 362 | –
335 K | 367 | –
340 K | 372 | –
345 K | 377 | –
350 K | 382 | –
355 K | 387 | –
360 K | 392 | –
365 K | 396 | –
370 K | 401 | –
375 K | 406 | –
380 K | 411 | 662
385 K | – | 664
390 K | – | 666
395 K | – | 668
400 K | – | 670
405 K | – | 671
410 K | – | 672
415 K | – | 673
420 K | – | 673
425 K | – | 674
430 K | – | 676
435 K | – | 678
440 K | – | 678
